# Experimental data reported in patent US6368604B1, “Non-pyrogenic derivatives of lipid A” (priority 1997, dated 2002).
# Legend:
# mice = conditions: cited from earlier work
# HIV-1 = conditions: in vivo; cited from earlier work
# human PBMCs [1] = assay: Human PBMC activation assay: TNFα, IL-1β, IL-6 in culture supernatants by capture ELISA; format: cell-based; conditions: human PBMC culture supernatants after stimulation, 1 μg/ml, 8 hr
# Procedure: 50 ml of whole blood is mixed with an equal volume of RPMI (Life Technologies) and PBMCs are isolated by density gradient using lymphocyte separation medium according to the manufacturer's directions (Organon). The PBMCs are washed twice with RPMI then resuspended in 6 ml of ice cold sterile water and placed on ice for 30 sec to lyse the erythrocytes. The osmolarity is adjusted by adding 2 ml of ice cold 3.5% (w/v) NaCl; the PBMCs are harvested by centrifugation, washed with RPMI and resuspended in complete medium (CM; RPMI containing pyruvate, glutamine, PenStrep, and 10% endotoxin-free human AB serum (Life Technologies) at a density of 6×10^6 PBMCs/ml. CM containing the preparations to be assayed are placed into duplicate wells of a 96-well flat bottom culture late (Costar) at double the target final concentration. An equal volume of CM containing the PBMCs then is added to these wells and the culture plates are incubated at 37° C. in 5% CO2 for 8 hr. The supernatants are then removed and stored at […] Quantitation of TNFα, IL-1β, IL-6, MIP-1α, MIP-1β and RANTES in these culture supernatants is achieved by capture ELISA (R&D Systems).
# (§1) Quantitation of TNFα, IL-1β, IL-6, MIP-1α and MIP-1β in these culture supernatants was achieved by capture ELISA (R&D Systems).
# This observation was reproduced using four unrelated PBMC donors and two separate LPS preparations. […]
# human PBMCs [2] = assay: LPS antagonist activity: TNFα from human PBMCs stimulated with W3110 LPS mixed with test preparation; format: cell-based; conditions: 1 μg/ml mixed with W3110 LPS 10 ng/ml, 8 hr
# Procedure: as §1
# W3110 LPS (also cultured at 37° C.) from 1 ng/ml to 100 ng/ml alone and W3110 LPS (10 ng/ml) mixed with synthetic lipid IVA (1 μg/ml) were used as controls.
# human PBMCs [3] = assay: β chemokine (MIP-1α, MIP-1β, RANTES) secretion from human PBMCs, dose and time course, capture ELISA; format: cell-based
# HIV-1BAL = assay: Replication of HIV-1BAL in human PBMC-derived monocytes (p24 ELISA); format: cell-based; conditions: 1000, 100 and 10 ng/ml for 24 hours before infection; p24 after a further 19 days
# Procedure: FIG. 5. Lipid A antagonist, lipid IVA, inhibits HIV replication. PBMCs were treated with synthetic lipid IVA at 1000 ng/ml, 100 ng/ml and 10 ng/ml for 24 hours. The treated cells were subsequently infected with 0.200 ng of HIV-1BAL (Cocchi et al, supra) for 2 hours, washed twice and incubated for a further 19 days. Culture supernatants were then collected and the level of p24 in these supernatants was measured by ELISA (R&D Systems). […] Figure Legend:
# To investigate the utility of the aforementioned findings, we investigated whether commercially available synthetic lipid IVA (ICN Inc.) suppressed the replication of HIV-1BAL in human PBMC-derived monocytes. Therefore, PBMCs were obtained as outlined in Section 6, see above, and placed into 12 well culture flat-bottom plate and incubated in CM (see example 1) for […] at 37° C. in 5% Co2. Non-adherent cells were removed and the cells were given fresh media every 2 days. After 6 days, the adherent PBMCs were treated with synthetic lipid IVA at 1000 ng/ml, 100 ng/ml and 10 ng/ml for 24 hours. […] Culture supernatants were then collected and the level of p24 in these supernatants was measured by ELISA (R&D Systems).
# PBMC-derived monocytes were obtained as outlined in Section 8, see above. […] Culture supernatants were then collected and the level of p24 in these supernatants was measured by ELISA (R&D Systems).
compound,measurement,setting,value
"2,3-diacyl-glucosamine-1-phosphate [lipid X]",pyrogenicity / toxicity in mice,mice,non-pyrogenic
"Cc1cn([C@H]2C[C@H](N=[N+]=[N-])[C@@H](CO)O2)c(=O)[nH]c1=O [AZT, 3′-azido-2′,3′-dideoxythymidine]",effect on viral load,HIV-1,about 1 log reduction
CCCCCCCCCCC[C@@H](O)CC(=O)N[C@H]1[C@H](OC[C@H]2O[C@H](OP(=O)(O)O)[C@H](NC(=O)C[C@H](O)CCCCCCCCCCC)[C@@H](OC(=O)C[C@H](O)CCCCCCCCCCC)[C@@H]2O)O[C@H](CO)[C@@H](OP(=O)(O)O)[C@@H]1OC(=O)C[C@H](O)CCCCCCCCCCC [Lipid IVA],IL-1β,human PBMCs [1],13 ± 1 pg/mL
same,IL-6,human PBMCs [1],7581 ± 20 pg/mL
same,TNFα,human PBMCs [2],<30 pg/mL
same,induction of β chemokines,human PBMCs [3],WITHOUT INDUCING […] OF β CHEMOKINES
same,replication of HIV-1BAL (p24 in supernatants),HIV-1BAL,suppresses the replication of HIV-1BAL in a dose-dependent manner
"CCCCCC/C=C/CCCCCC(=O)O[C@H](CCCCCCCCCCC)CC(=O)NC1C(OCC2OC(OP(=O)(O)O)C(NC(=O)CC(=O)CCCCCCCCCCC)C(OC(=O)C[C@H](O)CCCCCCC)C2O)OC(CO)C(OP(=O)(O)O)C1OC(=O)C[C@H](O)CCCCCCC (some centres unmarked) [RsDPLA, R. sphaeroides diphosphoryl lipid A]",level of RANTES after stimulation,human PBMCs [3]; human PBMCs,not significantly elevated
same,MIP-1α secretion,"human PBMCs [3]; human PBMCs, various doses",stimulated the secretion of MIP-1α and MIP-1β in a dose-dependent manner
same,MIP-1β secretion,"human PBMCs [3]; human PBMCs, various doses",stimulated the secretion of MIP-1α and MIP-1β in a dose-dependent manner
same,"time of peak production of chemokines (MIP-1α, MIP-1β) after stimulation","human PBMCs [3]; supernatants 8, 16, 24 and 48 hr after stimulation",24 h
